Experimental data: patent EP0249390A2, “Synthetic peptides related to the HIV glycoprotein gp 120” (Pert, Candace B., priority 1986, dated 1987)

Experiment: activity of peptide, test not specified

## CYS-THR-THR-ASN-TYR-THR-CYS (CTTNYTC; printed: CYS-THR-THR-ASN-TYR-THR-CYS) [seven amino acid peptide]
  activity: active
